# Laboratory results reported in publication PMC10119930, “Dual Molecules Targeting 5-HT6 and GABA-A Receptors as a New Approach to Combat Depression Associated with Neuroinflammation” (ACS Chemical Neuroscience, 2023).
# Experiments:
# [1] = Chemical stability assay in PBS; type: physicochemical
# Procedure: The quantitative HPLC analyses were acquired using Waters Alliance e2695 separations module (Waters, Milford, CT, USA) containing 2998 photodiode array (PDA), a detector (Waters, Milford, CT, USA), and the SpeedROD RP-18e 50–4.6 mm column (Merck, KGaA, Darmstadt, Germany). The temperature of the column was preserved at 30 °C. […] Each sample was injected at a volume of 10 μL in triplicate. […] The stock solutions were mixed with methanol and diluted, resulting in various solutions with concentrations ranging from 1.0 to 0.125 μg/mL. These solutions were then utilized to generate calibration curves by plotting AUC versus concentration in μg/mL. The examined molecules (2 mg) were dissolved in 1 mL of Dulbecco’s phosphate buffered saline (DPBS). The mixture was then continuously agitated at 22 °C for 24 h using a thermoshaker. Following this period, the mixtures were filtered through a cellulose acetate syringe filter (with a pore size of 0.22 μm), moved to a chromatographic vial, and analyzed. To quantify the investigated compounds, the areas beneath their respective peaks on DAD chromatograms were employed. Solubility was calculated using the calibration curves. Chemical stability assay: Stock solution of 16 in DMSO (10 mg/mL) was used. Next, 25 μL of stock solution was mixed with 975 μL of PBS (Dulbecco’s phosphate-buffered saline, Sigma, Poland). […] HPLC analyses were used to quantify the percentage of molecules that remained at each time point relative to the 0 min time point. Brain tissue stability assay: […] Then, 50 μL of the stock solution was combined with 50 μL of ice-cold 50 mM Tris-HCl buffer (pH 7.4) and 150 μL of brain homogenate (suspended in 20 volumes of 50 mM Tris-HCl buffer, ice cold, pH 7.4). The mix was then incubated at 37 °C and quenched at several time points. To terminate the reaction mixture, 250 μL of the appropriate reaction mixture was mixed with 1000 μL of MeCM in the Eppendorf Tube. Following 10 min of shaking (1500 rpm), samples were centrifuged (10 000 rpm, 10 min, 4 °C) and the acquired supernatant was collected. Before conducting HPLC analysis, the supernatant was filtered via a cellulose acetate syringe filter with a pore size of 0.45 μm and then transferred to a chromatographic vial. HPLC analysis was used to determine the percentage of the tested molecule remaining at each time point, relative to the 0 min time point. Plasma stability assay was performed as described previously.[45] Frozen rat plasma (Wistar) was thawed. […] The samples were collected at relative time points. The reaction was terminated by adding 1200 of μL acetonitrile/methanol mixture (50:50, v/v). The samples were centrifuge at 25 000 rpm for 10 min. HPLC analysis was used to determine the percentage of the tested molecule remaining at each time point relative to the 0 min time point. All the experiments were performed in duplicate.
# female Wistar rats [2] = assay: Forced swim test in rats; type: in vivo, rat
# Procedure: (§1) Naïve female Wistar rats (weighing 180–200 g) were used in the study. The animals were housed in groups of three to four in standard Makrolon cages (37 cm × 21 cm × 15 cm) under strictly controlled laboratory conditions (ambient temperature 21–24 °C, relative humidity 45–65%) with a 12/12 h light–dark regime (light on at 6:00 a.m. and off at 6:00 p.m.). Animals had unrestricted access to tap water and food (typical pellets). Prior the experiment the animals were randomly appointed to the group. The behavioral studies were accomplished between 8:00 a.m. and 5:00 p.m. with the researcher blind to the study. The experiments were performed according to protocols approved by the Local Ethical Committee in Krakow (Approval Number 147/2018), Poland. Housing and experimental procedures were conducted under the European Union Directive of September 22, 2010 (2010/63/EU) and Polish legislation regarding animal studies. All efforts were made to minimize animal suffering and the number of animals used in the study.
# (§2) Vortioxetine (Sigma, Germany) and the tested compounds (16 and 6) were dissolved in 10% cyclodextrin and administered ip 30 min before the test or during 14 consecutive days, with the last injection 60 min before the test. 10% cyclodextrin was administrated to control group.
# (§3) A modified forced swim test was carried out according to Detke et al.[50],[51] First, the animals were individually placed inside Plexiglas cylinders, which were 40 cm high and 18 cm in diameter, filled with water at a temperature of 23–25 °C for 15 min. Afterward, the rats were transferred to a Plexiglas box and kept under a 60 W bulb for 30 min to dry. The day after, exactly 24 h later, the rats were once again placed in the cylinder, and their duration of immobility, swimming, and climbing was observed and recorded during a 5 min. The swimming behavior involved energetic movements such as horizontal swimming around the cylinder, while climbing activity referred to upward movements of the forepaws along the swim chamber’s side. Immobility was recorded when the rat only made necessary movements to keep its head above the water. For each test, a fresh water was provided. Open field test in rats: The test was conducted as previously reported by our research group.[52] The test was performed in a darkened room employing the Motor Monitor System (Campden Instruments, Ltd., U.K.). The system was equipped with two SmartFrame Open Field stations, each measuring 40 cm × 40 cm × 38 cm and consisting of 16 × 16 beams. These stations were placed inside sound-attenuating chambers and connected to a PC software using […]. The animals, belonging to either the vehicle-injected or drug-injected group, were individually positioned at the center of the station. The Motor Monitor System, which was automated, recorded the animal’s ambulation in both the X and Y axes, as well as the number of rearing and peeping episodes. Additionally, the total distance traveled by each animal during the 5 min test period was also recorded. Statistical analysis: Results are presented as the mean ± SEM values. They were estimated using one-way analysis of variance (ANOVA), followed by Newman–Keuls post hoc or unpaired two-tailed Student t test. Statistical significance was considered when p < 0.05 for differences between groups.
# [3] = Thermodynamic solubility in PBS; type: physicochemical; settings: Dulbecco’s phosphate buffered saline, 22 °C, aqueous buffer, thermodynamic from solid, PBS pH 7.4, rt
# Procedure: The temperature of the column was preserved at 30 °C. The experiment was conducted under the following conditions: a flow rate of 5 mL/min, eluent A (water/0.1% HCOOH), eluent B (MeCN/0.1% HCOOH), a gradient of starting from 0% of B to 100% of B over a duration of 3 min. Each sample was injected at a volume of 10 μL in triplicate. […] These solutions were then utilized to generate calibration curves by plotting AUC versus concentration in μg/mL. The examined molecules (2 mg) were dissolved in 1 mL of Dulbecco’s phosphate buffered saline (DPBS). The mixture was then continuously agitated at 22 °C for 24 h using a thermoshaker. Following this period, the mixtures were filtered through a cellulose acetate syringe filter (with a pore size of 0.22 μm), moved to a chromatographic vial, and analyzed. To quantify the investigated compounds, the areas beneath their respective peaks on DAD chromatograms were employed. Solubility was calculated using the calibration curves. […] All the experiments were performed in duplicate.
# female Wistar rats [4] = assay: Open field test in rats (locomotor activity); type: in vivo, rat; set-up: total distance traveled: unit not given here
# Procedure: as §1, §2, §3
# [5] = acute, 3 mg/kg ip 30 min before test
# [6] = acute treatment, dose 3, ip 30 min prior
# [7] = chronic treatment, dose 3, ip 14 days
smiles,measurement,setting,value
"Cc1c(OCc2ccccc2)cccc1N1CCN(CCOC(=O)CCCN)CC1.Cl.Cl [Compound 16, 1-(2-((4-Ammoniobutanoyl)oxy)ethyl)-4-(3-(benzyloxy)-2-methylphenyl)piperazin-1-ium Dichloride]","% compound remaining, rt",[1]; 0 min,100 ± 0.2%
same,"% compound remaining, rt",[1]; 15 min,98.43 ± 1.8%
same,"% compound remaining, rt",[1]; 30 min,94.23 ± 1.8%
same,"% compound remaining, rt",[1]; 60 min,92.46 ± 2.2%
same,"% compound remaining, rt",[1]; 120 min,86.63 ± 2.3%
same,"% compound remaining, rt",[1]; 240 min,62.21 ± 1.7%
same,duration of swimming,female Wistar rats [2]; [5],without affecting the duration of swimming
same,increase of climbing behaviors vs control group,female Wistar rats [2]; [5],336.5%
same,reduction of immobility time vs control group,female Wistar rats [2]; [5],31.9%
same,decrease of immobility time vs vehicle-treated group,"female Wistar rats [2]; subchronic, 3 mg/kg ip for 14 days, test 60 min after last injection",22.9%
same,solubility at 24 h,[3],> 2000 µg/mL
same,X ambulation,female Wistar rats [4]; [6],221.3
same,Y ambulation,female Wistar rats [4]; [6],213.7
same,rearing,female Wistar rats [4]; [6],34.5
same,total distance traveled,female Wistar rats [4]; [6],506.3
same,influence on spontaneous locomotor activity,"female Wistar rats [4]; acute, 3 mg/kg",did not observe any influence
same,X ambulation,female Wistar rats [4]; [7],260.4
same,Y ambulation,female Wistar rats [4]; [7],255.3
same,rearing,female Wistar rats [4]; [7],52.2
same,total distance traveled,female Wistar rats [4]; [7],2575
same,changes in spontaneous locomotor activity,"female Wistar rats [4]; subchronic, 3 mg/kg",did not result in any significant changes
